Laboratory results reported in article PMC5101293, “Acyclic nucleoside phosphonates containing the amide bond” (Monatshefte Fur Chemie, 2016).

system: murine leukemia L1210; experiment: Cytostatic activity assay, L1210; type: cell-based; conditions: Mus musculus; L1210 cells, 48 h; read-out: IC50 (50% cytostatic inhibitory concentration, cell proliferation)
Protocol: (§1) The 50% cytostatic inhibitory concentration (IC50) causing a 50% decrease in cell proliferation was determined against murine leukemia L1210, human lymphocyte CEM, human cervix carcinoma HeLa, and human dermal microvascular endothelial cells (HMEC-1).
(§2) All assays were performed in 96-well microtiter plates. To each well were added (5–7.5) × 10^4 tumor cells and a given amount of the test compound. The cells were allowed to proliferate for 48 h (murine leukemia L1210 cells) or 72 h (human lymphocytic CEM and human cervix carcinoma HeLa cells) at 37 °C in a humidified CO2-controlled atmosphere. At the end of the incubation period, the cells were counted in a Coulter counter. The IC50 (50% inhibitory concentration) was defined as the concentration of the compound that inhibited cell proliferation by 50%.

| Structure (SMILES) | IC50 [µM] |
| --- | --- |
| CCOP(=O)(COCCNC(=O)Cn1cc(F)c(=O)[nH]c1=O)OCC [18d] | 89 ± 16 |

system: human cervix carcinoma HeLa; experiment: Cytostatic activity assay, HeLa; type: cell-based; conditions: HeLa cells, 72 h, read-out: IC50 (50% cytostatic inhibitory concentration, cell proliferation)
Protocol: as §1, §2

| Structure (SMILES) | IC50 [µM] |
| --- | --- |
| CCOP(=O)(COCCNC(=O)Cn1cc(F)c(=O)[nH]c1=O)OCC [18d] | 194 ± 19 |

system: not given; experiment: not given; conditions: not given

| melting point | Structure (SMILES) |
| --- | --- |
| 215 to 217 °C | CCOP(=O)(CNC(=O)Cn1ccc(=O)[nH]c1=O)OCC |
| 138 to 140 °C | CCOP(=O)(CCNC(=O)Cn1ccc(=O)[nH]c1=O)OCC |
| 185 to 186 °C | CCOP(=O)(CCNC(=O)Cn1cc(F)c(=O)[nH]c1=O)OCC |
| 211 to 213 °C | CCOP(=O)(CNC(=O)Cn1cc(Br)c(=O)[nH]c1=O)OCC |
| 211 to 213 °C | CCOP(=O)(CCNC(=O)Cn1cc(Br)c(=O)[nH]c1=O)OCC |
| 164 to 166 °C | CCOP(=O)(CCCNC(=O)Cn1cc(Br)c(=O)[nH]c1=O)OCC |
| 211.5 to 212.5 °C | CCOP(=O)(CNC(=O)Cn1cc(C)c(=O)[nH]c1=O)OCC |
| 196 to 197 °C | CCOP(=O)(CCNC(=O)Cn1cc(C)c(=O)[nH]c1=O)OCC |
| 120 to 122 °C | CCOP(=O)(CCCNC(=O)Cn1ccc(=O)[nH]c1=O)OCC (hydrate or solvate) |
| 205 to 208 °C | CCOP(=O)(CNC(=O)Cn1cc(F)c(=O)[nH]c1=O)OCC (hydrate or solvate) |
| 143 to 144 °C | CCOP(=O)(CCCNC(=O)Cn1cc(F)c(=O)[nH]c1=O)OCC (hydrate or solvate) |
| 183 to 184 °C | CCOP(=O)(CCCNC(=O)Cn1cc(C)c(=O)[nH]c1=O)OCC (hydrate or solvate) |
| 203 to 205 °C | CCOP(=O)(CNC(=O)Cn1c(=O)[nH]c(=O)c2ccccc21)OCC (hydrate or solvate) |

Further lines, the compound ahead of its results:

| Structure (SMILES) | melting point |
| --- | --- |
| CCOP(=O)(CCNC(=O)Cn1ccc(NC(=O)OCc2ccccc2)nc1=O)OCC | 127 to 128 °C |
| CCOP(=O)(CCCNC(=O)Cn1ccc(NC(=O)OCc2ccccc2)nc1=O)OCC | 150 to 151 °C |
| CCOP(=O)(CCNC(=O)Cn1c(=O)[nH]c(=O)c2ccccc21)OCC | 180 to 182 °C |
| CCOP(=O)(CCCNC(=O)Cn1c(=O)[nH]c(=O)c2ccccc21)OCC | 168 to 169 °C |
| CCOP(=O)(CNC(=O)Cn1cnc2c(N(C(=O)OC(C)(C)C)C(=O)OC(C)(C)C)ncnc21)OCC | 128 to 130 °C |
| CCOP(=O)(CCNC(=O)Cn1cnc2c(Cl)nc(N)nc21)OCC | 158 to 160 °C |
| CCOP(=O)(CCCNC(=O)Cn1cnc2c(Cl)nc(N)nc21)OCC | 180 to 181 °C |
| CCOP(=O)(CNC(=O)Cn1ccc(NC(=O)OCc2ccccc2)nc1=O)OCC (hydrate or solvate) | 180 to 182 °C |
| CCOP(=O)(CNC(=O)Cn1cnc2c(Cl)nc(N)nc21)OCC (hydrate or solvate) | 130 to 132 °C |
| CCOP(=O)(CNC(=O)Cn1cnc2c(=O)[nH]c(N)nc21)OCC (hydrate or solvate) | 165 °C (dec.) |
| CCOP(=O)(CCNC(=O)Cn1cnc2c(=O)[nH]c(N)nc21)OCC (hydrate or solvate) | 175 °C (dec.) |
| CCOP(=O)(CCCNC(=O)Cn1cnc2c(=O)[nH]c(N)nc21)OCC (hydrate or solvate) | 155 °C (dec.) |
| CCOP(=O)(COCCNC(=O)Cn1cc(F)c(=O)[nH]c1=O)OCC [18d] | 69 to 70 °C |

system: L1210 cells; experiment: not given; set-up: method as in doi:10.1135/cccc19822806; conditions: cited from earlier work

| Structure (SMILES) | concentration at which found active in vitro against L1210 cells [µM] |
| --- | --- |
| O=C(Cn1cc(F)c(=O)[nH]c1=O)NC(CO)(CO)CO [18e] | 15 |
